Measured values published in DBAASP.
≈ marks a conversion by molar mass, not a printed value. Where “and” joins values, the source holds several entries; their conditions need not be identical. Identical values can stand only once.

What was measured:
Assay in all cases: ≥ marks a high value that may be exact or a test limit, other limits are often not marked, values filed in µg/mL are converted to µM
[1] = system: Candida albicans ATCC 10231
[2] = system: Staphylococcus aureus ATCC 43300
[3] = system: Staphylococcus aureus ATCC 33591
[4] = system: Cryptococcus neoformans ATCC 32264
[5] = system: Salmonella enterica subsp. enterica serovar Enteritidis
Escherichia coli = system: Escherichia coli
Yersinia enterocolitica = system: Yersinia enterocolitica
Salmonella sp. = system: Salmonella sp.
[6] = system: Pseudomonas aeruginosa ATCC 27853
[7] = system: Staphylococcus aureus ATCC 29213
[8] = system: Escherichia coli ATCC 25922
[9] = system: Staphylococcus aureus AB94004
[10] = system: Staphylococcus aureus ATCC 25923
[11] = system: Pseudomonas aeruginosa AB93066
Escherichia coli AB94012 = system: Escherichia coli AB94012
[12] = system: Staphylococcus aureus P1374
[13] = system: Pseudomonas aeruginosa ATCC 9027
[14] = system: Staphylococcus aureus P1381
[15] = system: Staphylococcus aureus ATCC 6538
[16] = system: Candida tropicalis CCARM 14019
[17] = system: Fusarium graminearum PH-1
[18] = system: Vibrio splendidus CIP 107715
[19] = system: Micrococcus luteus CIP 5345
Escherichia coli SBS 363 = system: Escherichia coli SBS 363
[20] = system: Microbacterium maritypicum CIP 105733T
[21] = system: Staphylococcus aureus SG511
[22] = system: Bacillus megaterium CIP 6620
[23] = system: Staphylococcus aureus CIP 103428
[24] = system: Corynebacterium stationis CIP 101282
[25] = system: Vibrio nigripulchritudo CIP 103195
[26] = system: Staphylococcus haemolyticus
Escherichia coli B = system: Escherichia coli B
Pseudomonas aeruginosa = system: Pseudomonas aeruginosa
Bacillus subtilis 168 = system: Bacillus subtilis 168
[27] = system: Candida albicans F7-39/IDE99
Staphylococcus aureus = system: Staphylococcus aureus
[28] = system: Micrococcus luteus CCM 144
[29] = system: Elizabethkingia meningoseptica
Staphylococcus aureus 31 = system: Staphylococcus aureus 31
[30] = system: Pseudomonas aeruginosa PAER1
Delftia acidovorans = system: Delftia acidovorans
[31] = system: Stenotrophomonas maltophilia
[32] = system: Pseudomonas aeruginosa 6206
Burkholderia cepacia = system: Burkholderia cepacia
[33] = system: Pseudomonas aeruginosa 6294
Staphylococcus aureus 38 = system: Staphylococcus aureus 38
[34] = system: Pseudomonas aeruginosa ATCC 19660

CC[C@H](C)[C@H](NC(=O)[C@H](CCCCN)NC(=O)[C@@H](NC(=O)[C@H](CCC(N)=O)NC(=O)[C@@H](N)CCCCN)[C@@H](C)CC)C(=O)N[C@@H](Cc1c[nH]c2ccccc12)C(=O)N[C@@H](Cc1ccccc1)C(=O)N[C@@H](CCC(N)=O)C(=O)N[C@@H](CC(N)=O)C(=O)N[C@@H](CCCCN)C(=O)N[C@@H](CCCCN)C(=O)N[C@@H](CCSC)C(=O)N[C@@H](CCCCN)C(=O)N[C@@H](Cc1c[nH]c2ccccc12)C(=O)N[C@@H](CCCCN)C(=O)N[C@@H](CCCCN)C(N)=O [KQIKIWFQNKKMKWKK]
MIC [1]: 50 µM (≈ 108 µg/mL) | MIC [2]: > 50 µM | MIC [3]: ≥ 256 µM | MIC [4]: ≥ 50 µM | MIC [5]: 25 µM (≈ 54 µg/mL) | MIC (Escherichia coli): 17.7 µM (≈ 38.2 µg/mL) | MIC (Yersinia enterocolitica): ≥ 50 µM | MIC (Salmonella sp.): ≥ 50 µM | MIC [6]: > 50 µM | MIC [7]: > 50 µM | MIC [8]: 64 µM and 50 µM

CC[C@H](C)[C@H](NC(=O)CN)C(=O)N[C@@H](CC(C)C)C(=O)NCC(=O)N[C@@H](CCCCN)C(=O)N[C@@H](CC(C)C)C(=O)N[C@@H](Cc1c[nH]c2ccccc12)C(=O)N[C@@H](CCCCN)C(=O)NCC(=O)N[C@H](C(=O)N[C@@H](CCCCN)C(=O)N[C@@H](CO)C(=O)N[C@H](C(=O)N[C@@H](Cc1ccccc1)C(N)=O)[C@@H](C)CC)C(C)C [GILGKLWKGVKSIF]
MIC [9]: 4.04 µM (≈ 6.25 µg/mL) | MIC [10]: 8.09 µM (≈ 12.5 µg/mL) | MIC [11]: ≥ 32.3 µM | MIC (Escherichia coli AB94012): 16.2 µM (≈ 25 µg/mL) | MIC [12]: 4.04 µM (≈ 6.25 µg/mL) | MIC [13]: 16.2 µM (≈ 25 µg/mL) | MIC [14]: 4.04 µM (≈ 6.25 µg/mL) | MIC [15]: 4.04 µM (≈ 6.25 µg/mL) | MIC [8]: 64.7 µM (≈ 99.9 µg/mL)

CC(C)C[C@H](NC(=O)CNC(=O)[C@H](Cc1cnc[nH]1)NC(=O)[C@H](Cc1cnc[nH]1)NC(=O)[C@H](CCCN=C(N)N)NC(=O)[C@H](CCCCN)NC(=O)[C@H](C)N)C(=O)N[C@@H](CC(N)=O)C(=O)N[C@@H](CS)C(=O)N[C@@H](C)C(=O)N[C@@H](CCCCN)C(=O)N[C@@H](Cc1ccccc1)C(=O)N[C@@H](Cc1cnc[nH]1)C(N)=O [AKRHHGLNCAKFH]
MIC [16]: 0.466 µM and 0.931 µM

NC(N)=NCCC[C@H](NC(=O)[C@H](Cc1ccccc1)NC(=O)[C@H](CC(=O)O)NC(=O)[C@H](CC(=O)O)NC(=O)[C@@H](N)CCCN=C(N)N)C(=O)O [RDDFR]
MIC [17]: ≥ 96 µM

CC[C@H](C)[C@H](NC(=O)[C@@H]1CCCN1C(=O)CN)C(=O)N[C@@H](CCCN=C(N)N)C(=O)N[C@@H](CCCN=C(N)N)C(=O)N1CCC[C@H]1C(=O)N[C@@H](CCC(=O)O)C(=O)N1CCC[C@H]1C(=O)N[C@@H](CCCN=C(N)N)C(=O)N1CCC[C@H]1C(=O)N[C@@H](CCCN=C(N)N)C(=O)N1CCC[C@H]1C(=O)N[C@@H](CCC(=O)O)C(=O)O [GPIRRPEPRPRPE]
MIC [18]: ≥ 40 µM | MIC [19]: ≥ 80 µM | MIC (Escherichia coli SBS 363): ≥ 80 µM | MIC [20]: 20 µM (≈ 31.1 µg/mL) | MIC [21]: 20 µM (≈ 31.1 µg/mL) | MIC [22]: 20 µM (≈ 31.1 µg/mL) | MIC [23]: 20 µM (≈ 31.1 µg/mL) | MIC [24]: 20 µM (≈ 31.1 µg/mL) | MIC [25]: ≥ 40 µM | MIC [26]: 20 µM (≈ 31.1 µg/mL)

CC[C@H](C)[C@H](NC(=O)[C@H](CC(C)C)NC(=O)[C@H](CCCCN)NC(=O)[C@@H](NC(=O)[C@@H](NC(=O)[C@H](Cc1cnc[nH]1)NC(=O)[C@@H]1CCCN1C(=O)[C@H](CC(C)C)NC(=O)[C@@H](NC(=O)[C@H](CCCCN)NC(=O)[C@H](C)NC(=O)[C@H](CC(C)C)NC(=O)[C@H](CCCCN)NC(=O)[C@H](CO)NC(=O)[C@H](C)NC(=O)[C@H](CCSC)NC(=O)CN)C(C)C)C(C)C)C(C)C)C(=O)N[C@@H](CCCCN)C(=O)O [GMASKLAKVLPHVVKLIK]
MIC (Escherichia coli B): 2.9 µM (≈ 5.6 µg/mL) | MIC (Pseudomonas aeruginosa): 100 µM (≈ 193 µg/mL) | MIC (Bacillus subtilis 168): 3.1 µM (≈ 5.99 µg/mL) | MIC [27]: ≥ 56.3 µM | MIC (Staphylococcus aureus): 35 µM (≈ 67.6 µg/mL) | MIC [28]: 1.4 µM (≈ 2.71 µg/mL)

NCCCC[C@H](NC(=O)[C@H](CCCN=C(N)N)NC(=O)[C@H](CCCCN)NC(=O)[C@H](CC(N)=O)NC(=O)[C@@H](N)CCCCN)C(=O)N[C@@H](CCCN=C(N)N)C(=O)N[C@@H](CCCN=C(N)N)C(=O)N[C@@H](CCCN=C(N)N)C(=O)N[C@@H](CCCN=C(N)N)C(=O)N[C@@H](CCCN=C(N)N)C(=O)N[C@@H](CCCN=C(N)N)C(=O)NCC(=O)NCC(=O)N[C@@H](CCCN=C(N)N)C(=O)N[C@@H](CCCN=C(N)N)C(=O)N[C@@H](CCCN=C(N)N)C(=O)N[C@@H](CCCN=C(N)N)C(=O)O [KNKRKRRRRRRGGRRRR]
MIC [29]: ≥ 213 µM | MIC (Staphylococcus aureus 31): ≥ 106 µM | MIC [30]: ≥ 106 µM | MIC (Delftia acidovorans): ≥ 426 µM | MIC [31]: 13.3 µM (≈ 31.2 µg/mL) | MIC [32]: 26.6 µM (≈ 62.5 µg/mL) | MIC (Burkholderia cepacia): ≥ 426 µM | MIC [33]: ≥ 106 µM | MIC (Staphylococcus aureus 38): ≥ 106 µM | MIC [15]: 53.2 µM (≈ 125 µg/mL) | MIC [34]: 26.6 µM (≈ 62.5 µg/mL)
